Calls of active or inactive are those of the source. No cut-off for these calls is given here.
Tests used:
Frankliniella fusca [1] = experiment: (§1) Insecticidal activity against Frankliniella fusca assessed as reduction in tomato spotted wilt tospovirus transmission in compound pretreated pepper plant at 9.9 g a.i./1000 plants 60 days prior to 48 hr insect-infestation followed by foliar application at 7.1 g a.i./1000 plants measured after 21 days in green house conditions; format: functional; design: scale not given: the % may be the effect or the level left
Frankliniella fusca [2] = experiment: Insecticidal activity against Frankliniella fusca assessed as effect on probing/feeding bout on pepper plants at 14.4 g a.i./1000 plants measured as duration of potential drops by electronic penetration graph analysis (reference value: 0.04 +/- 0.02 min); format: functional
Frankliniella fusca [3] = experiment: Insecticidal activity against Frankliniella fusca assessed as effect on probing/feeding bout on pepper plants at 14.4 g a.i./1000 plants measured as number of potential drops by electronic penetration graph analysis (reference value: 0.28 +/- 0.03 /hr); format: functional
Frankliniella fusca [4] = experiment: Insecticidal activity against Frankliniella fusca assessed as effect on probing/feeding bout on pepper plants at 7.1 g a.i./1000 plants measured as duration of potential drops by electronic penetration graph analysis (reference value: 0.01 +/- 0.01 min); format: functional
Frankliniella fusca [5] = experiment: Insecticidal activity against Frankliniella fusca assessed as effect on probing/feeding bout on pepper plants at 7.1 g a.i./1000 plants measured as number of potential drops by electronic penetration graph analysis (reference value: 0.03 +/- 0.01 /hr); format: functional
Frankliniella fusca [6] = experiment: Insecticidal activity against Frankliniella fusca assessed as effect on probing/feeding bout on mustard plants at 14.4 g a.i./1000 plants measured as duration of potential drops by electronic penetration graph analysis (reference value: 0.06 +/- 0.03 min); format: functional
Frankliniella fusca [7] = experiment: Insecticidal activity against Frankliniella fusca assessed as effect on probing/feeding bout on mustard plants at 14.4 g a.i./1000 plants measured as number of potential drops by electronic penetration graph analysis (reference value: 0.2 +/- 0.09 /hr); format: functional
Frankliniella fusca [8] = experiment: Insecticidal activity against Frankliniella fusca assessed as effect on probing/feeding bout on mustard plants at 7.1 g a.i./1000 plants measured as duration of potential drops by electronic penetration graph analysis (reference value: 1.28 +/- 0.15 min); format: functional
Frankliniella fusca [9] = experiment: Insecticidal activity against Frankliniella fusca assessed as effect on probing/feeding bout on mustard plants at 7.1 g a.i./1000 plants measured as number of potential drops by electronic penetration graph analysis (reference value: 0.7 +/- 0.11 /hr); format: functional
Frankliniella fusca [10] = experiment: Insecticidal activity against Frankliniella fusca immature thrips isolated from infected tobacco plants assessed reduction in tomato spotted wilt tospovirus transmission on petunia leaf by DAS-ELISA; format: functional; design: scale not given: the % may be the effect or the level left
Frankliniella fusca [11] = experiment: Insecticidal activity against Frankliniella fusca assessed as reduction in number of thrips isolated per compound pre-treated tobacco plant infected with tomato spotted wilt tospovirus at 9.9 g a.i./1000 plants in green house conditions relative to control; format: functional, organism-based
Frankliniella fusca [12] = experiment: as §1, with “as” for “as reduction in”, “pre-treated tobacco” for “pretreated pepper”, “conditions (reference value: 82.5 +/- 0.05%)” for “conditions”; format: functional
Frankliniella fusca [13] = experiment: as §1, with “tomato” for “pepper”, “11.3” for “9.9”, “8” for “60”, “field” for “green house”; format: functional; design: scale not given: the % may be the effect or the level left
Frankliniella fusca [14] = experiment: as §1, with “pre-treated tomato” for “pretreated pepper”; format: functional; design: scale not given: the % may be the effect or the level left
Frankliniella fusca [15] = experiment: as §1, with “pre-treated” for “pretreated”, “11.3” for “9.9”, “8” for “60”, “field” for “green house”; format: functional; design: scale not given: the % may be the effect or the level left

Work on `O=[N+]([O-])/N=C1\NCCN1Cc1ccc(Cl)nc1` [IMIDACLOPRID] yielded an Activity (Frankliniella fusca [1]) of 74%, a Time (Frankliniella fusca [2]) of 0.52 min and an Activity (Frankliniella fusca [3]) of 1.84 h⁻¹. The Time (Frankliniella fusca [4]) was 0.39 min, the Activity (Frankliniella fusca [5]) was 1.53 h⁻¹ and the Time (Frankliniella fusca [6]) was 0.79 min. For the same compound, the Activity (Frankliniella fusca [7]) was 1.53 h⁻¹, the Time (Frankliniella fusca [8]) was 1.41 min and the Activity (Frankliniella fusca [9]) was 2.12 h⁻¹. For the same compound, the Activity (Frankliniella fusca [10]) was 6.4%, the Activity (Frankliniella fusca [11]) was “Active” and the Activity (Frankliniella fusca [12]) was 11.1%. For the same compound, the Activity (Frankliniella fusca [13]) was 87%, the Activity (Frankliniella fusca [14]) was 82% and the Activity (Frankliniella fusca [15]) was 73%.

From ChEMBL document CHEMBL3046739, “Effects of imidacloprid on transmission of tomato spotted wilt tospovirus to pepper, tomato and tobacco by Frankliniella fusca Hinds (Thysanoptera: Thripidae)” (2001)
